A short description of series [1]: Inhibition of prostate specific antigen (PSA) production in human LNCaP C4-2 cells measured after 4 days by ELISA assay. In kind it is functional, cell-based. The conditions noted are these: LNCaP C4-2, 96 h. Background: An ELISA detects its analyte on a solid surface through an enzyme-linked reagent.
Series [2] in a line: AUC in female FVB mouse at 27 mg/kg, ip by LC/MS/MS analysis. It is filed as ADME, organism-based. The arrangement: dose 27 mg/kg. The conditions noted are these: in vivo.
Series [3] can be described thus: Metabolic stability of compound in human hepatocytes assessed as metabolic conversion rate by LC/MS/MS analysis. It is filed as ADME, cell-based, Hepatocyte.
The nature of series [4]: Half-life in female FVB mouse at 27 mg/kg, ip by LC/MS/MS analysis. In kind it is ADME, organism-based. The conditions noted are these: in vivo.
Series [5] can be described thus: Elimination rate in female FVB mouse at 27 mg/kg, ip by LC/MS/MS analysis. It is filed as ADME, organism-based. The conditions noted are these: in vivo.
Series [6] addresses T1, Myosin-IIIb (Homo sapiens) (UniProt Q8WXR4).
T1 sequence (whole entry): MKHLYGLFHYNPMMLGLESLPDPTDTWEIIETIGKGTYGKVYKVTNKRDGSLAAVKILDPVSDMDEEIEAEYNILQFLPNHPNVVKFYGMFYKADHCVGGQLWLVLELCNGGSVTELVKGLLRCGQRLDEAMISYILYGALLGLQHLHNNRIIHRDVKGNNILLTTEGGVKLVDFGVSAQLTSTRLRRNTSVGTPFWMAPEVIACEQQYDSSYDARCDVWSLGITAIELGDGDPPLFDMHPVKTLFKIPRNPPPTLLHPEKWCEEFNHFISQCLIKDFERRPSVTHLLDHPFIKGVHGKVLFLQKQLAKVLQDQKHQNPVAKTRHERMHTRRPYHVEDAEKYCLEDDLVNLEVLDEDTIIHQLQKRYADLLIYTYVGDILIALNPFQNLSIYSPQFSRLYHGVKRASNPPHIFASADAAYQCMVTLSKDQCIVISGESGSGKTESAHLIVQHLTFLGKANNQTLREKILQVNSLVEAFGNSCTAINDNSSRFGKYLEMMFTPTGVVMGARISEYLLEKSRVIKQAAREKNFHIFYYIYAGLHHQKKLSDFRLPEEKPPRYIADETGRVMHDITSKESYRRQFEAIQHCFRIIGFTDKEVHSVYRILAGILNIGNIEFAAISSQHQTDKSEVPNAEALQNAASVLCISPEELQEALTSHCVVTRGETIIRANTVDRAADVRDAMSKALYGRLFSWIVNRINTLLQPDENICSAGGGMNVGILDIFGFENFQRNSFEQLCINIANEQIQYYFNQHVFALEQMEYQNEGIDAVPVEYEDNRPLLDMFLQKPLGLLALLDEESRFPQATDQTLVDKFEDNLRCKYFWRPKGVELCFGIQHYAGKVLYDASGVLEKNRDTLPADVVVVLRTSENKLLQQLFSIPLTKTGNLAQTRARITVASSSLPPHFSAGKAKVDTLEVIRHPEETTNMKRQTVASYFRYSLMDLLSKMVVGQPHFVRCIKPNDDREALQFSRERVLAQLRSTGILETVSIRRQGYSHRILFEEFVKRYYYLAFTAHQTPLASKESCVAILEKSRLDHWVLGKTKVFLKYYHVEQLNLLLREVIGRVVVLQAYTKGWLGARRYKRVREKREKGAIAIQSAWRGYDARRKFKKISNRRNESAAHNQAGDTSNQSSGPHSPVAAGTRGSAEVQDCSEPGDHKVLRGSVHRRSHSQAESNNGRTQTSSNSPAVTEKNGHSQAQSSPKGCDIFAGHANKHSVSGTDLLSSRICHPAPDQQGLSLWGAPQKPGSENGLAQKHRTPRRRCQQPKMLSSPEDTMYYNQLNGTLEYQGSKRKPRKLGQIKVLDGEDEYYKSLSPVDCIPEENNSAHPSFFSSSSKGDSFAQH
As to the kind of experiment: Inhibition of human MYO3B by DiscoverX assay.

Series [7] deals with Cyclin-dependent kinase 8 (Homo sapiens) (UniProt P49336). As to the kind of experiment: Inhibition of CDK8 in TNF-alpha-induced HEK293 cells at 1 uM by NF-kappaB reporter assay relative to control. It is filed as cell-based.
Sequence of Cyclin-dependent kinase 8 (Homo sapiens) (P49336 whole entry): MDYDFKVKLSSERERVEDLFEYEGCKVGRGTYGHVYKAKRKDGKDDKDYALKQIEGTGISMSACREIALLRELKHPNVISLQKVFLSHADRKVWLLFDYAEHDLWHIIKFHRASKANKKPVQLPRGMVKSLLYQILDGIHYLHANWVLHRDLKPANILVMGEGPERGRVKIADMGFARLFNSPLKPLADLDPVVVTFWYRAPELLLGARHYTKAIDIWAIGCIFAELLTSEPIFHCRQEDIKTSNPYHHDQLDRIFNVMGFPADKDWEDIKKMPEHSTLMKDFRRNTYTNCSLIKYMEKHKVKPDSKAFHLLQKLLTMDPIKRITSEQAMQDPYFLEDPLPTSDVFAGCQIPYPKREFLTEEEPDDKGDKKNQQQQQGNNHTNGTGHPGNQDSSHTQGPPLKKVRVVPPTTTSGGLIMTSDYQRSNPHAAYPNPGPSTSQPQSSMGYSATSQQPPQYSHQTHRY
The subject of another series is 4T1. Nature of the series: Antitumour activity against mouse 4T1 cells xenografted in female Balb/c mouse assessed as increase in animal survival at 40 mg/kg, po administered twice per day. It is filed as functional, organism-based.
Series [8] addresses T2, Serine/threonine-protein kinase haspin (Homo sapiens) (UniProt Q8TF76).
T2 sequence (whole entry): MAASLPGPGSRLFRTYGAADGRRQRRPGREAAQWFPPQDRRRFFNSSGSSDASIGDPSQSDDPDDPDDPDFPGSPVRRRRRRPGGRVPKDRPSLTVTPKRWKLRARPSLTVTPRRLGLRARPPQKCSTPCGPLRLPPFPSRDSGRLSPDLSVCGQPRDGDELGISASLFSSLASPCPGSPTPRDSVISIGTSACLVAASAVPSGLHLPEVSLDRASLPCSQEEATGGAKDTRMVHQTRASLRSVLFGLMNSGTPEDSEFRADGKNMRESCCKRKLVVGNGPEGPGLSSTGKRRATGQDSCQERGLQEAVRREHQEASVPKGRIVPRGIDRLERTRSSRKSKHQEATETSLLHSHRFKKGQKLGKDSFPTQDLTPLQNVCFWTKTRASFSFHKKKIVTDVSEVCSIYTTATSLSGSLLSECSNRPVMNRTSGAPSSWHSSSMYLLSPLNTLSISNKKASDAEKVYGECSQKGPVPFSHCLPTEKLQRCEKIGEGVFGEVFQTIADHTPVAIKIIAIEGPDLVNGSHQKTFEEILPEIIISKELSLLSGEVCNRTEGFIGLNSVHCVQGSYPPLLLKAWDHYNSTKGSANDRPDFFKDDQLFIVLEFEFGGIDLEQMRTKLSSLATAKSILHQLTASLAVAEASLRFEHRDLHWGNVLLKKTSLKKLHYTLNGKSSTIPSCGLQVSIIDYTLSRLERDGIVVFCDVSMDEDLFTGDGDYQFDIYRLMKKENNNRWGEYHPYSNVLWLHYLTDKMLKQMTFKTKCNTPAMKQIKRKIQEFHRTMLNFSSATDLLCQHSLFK
As to the kind of experiment: Inhibition of human HASPIN at 2000 nM by KINOMEscan assay.

Series [9] has as its target T3, Cyclin-dependent kinase 8/19 (Homo sapiens) (UniProt P49336+Q9BWU1). Nature of the series: Inhibition of CDK8/CDK19 in HEK293 cells assessed as reduction in MYC expression at 1 uM incubated for 2 hrs and measured after 24 hrs of compound wash-off. In kind it is cell-based.
Series [10] is described as follows: Half-life in female FVB mice at 30 mg/kg, po. It is filed as ADME, organism-based. The conditions noted are these: mouse, in vivo.
The nature of series [11]: Drug uptake in tumor of male NcrNU mouse xenografted with human C4-2 cells at 40 mg/kg, po administered for 4 days. In kind it is ADME, organism-based, Neoplasm, LNCaP C4-2. The conditions noted are these: in vivo, 96 h. (A xenograft is tissue or cells of one species grown in another, often human tumour cells in immunodeficient mice.)
Series [12] deals with Cyclin-dependent kinase 8 (Homo sapiens) (UniProt P49336). Nature of the series: Inhibition of human CDK8 at 2000 nM by KINOMEscan assay.
A further series concerns LNCaP C4-2. As to the kind of experiment: Antitumor activity against human C4-2 cells xenografted in male NcrNU mouse assessed as decrease in PSA mRNA levels in tumor at 40 mg/kg, po administered for 4 days. It is filed as functional, organism-based.
The target in series [13] is T3, Cyclin-dependent kinase 8/19 (Homo sapiens). As to the kind of experiment: Inhibition of CDK8/CDK19 in HEK293 cells assessed as reduction in JUN expression at 1 uM incubated for 2 hrs and measured after 24 hrs of compound wash-off. In kind it is cell-based.
Series [14] concerns the target T1, Myosin-IIIb (Homo sapiens). Nature of the series: Inhibition of human MYO3B at 2000 nM by KINOMEscan assay.
Series [15] is described as follows: Ratio of tumor to blood biodistribution in male NcrNU mouse xenografted with 22Rv1 human xenografts at 20 mg/kg, ip. In kind it is ADME, organism-based, Serum/Tumor.
The nature of series [16]: Elimination rate in female FVB mouse at 19 mg/kg, ip by LC/MS/MS analysis. In kind it is ADME, organism-based. The conditions noted are these: in vivo.
The nature of series [17]: AUC (0-8 h) in female FVB mouse at 30 mg/kg, po. The conditions noted are these: in vivo. The arrangement: time < 8 hr, route oral, dose 30 mg/kg. In kind it is ADME, organism-based.
For series [18], the target named is T4, Mitogen-activated protein kinase kinase kinase kinase 2 (Homo sapiens) (UniProt Q12851).
T4 sequence (whole entry): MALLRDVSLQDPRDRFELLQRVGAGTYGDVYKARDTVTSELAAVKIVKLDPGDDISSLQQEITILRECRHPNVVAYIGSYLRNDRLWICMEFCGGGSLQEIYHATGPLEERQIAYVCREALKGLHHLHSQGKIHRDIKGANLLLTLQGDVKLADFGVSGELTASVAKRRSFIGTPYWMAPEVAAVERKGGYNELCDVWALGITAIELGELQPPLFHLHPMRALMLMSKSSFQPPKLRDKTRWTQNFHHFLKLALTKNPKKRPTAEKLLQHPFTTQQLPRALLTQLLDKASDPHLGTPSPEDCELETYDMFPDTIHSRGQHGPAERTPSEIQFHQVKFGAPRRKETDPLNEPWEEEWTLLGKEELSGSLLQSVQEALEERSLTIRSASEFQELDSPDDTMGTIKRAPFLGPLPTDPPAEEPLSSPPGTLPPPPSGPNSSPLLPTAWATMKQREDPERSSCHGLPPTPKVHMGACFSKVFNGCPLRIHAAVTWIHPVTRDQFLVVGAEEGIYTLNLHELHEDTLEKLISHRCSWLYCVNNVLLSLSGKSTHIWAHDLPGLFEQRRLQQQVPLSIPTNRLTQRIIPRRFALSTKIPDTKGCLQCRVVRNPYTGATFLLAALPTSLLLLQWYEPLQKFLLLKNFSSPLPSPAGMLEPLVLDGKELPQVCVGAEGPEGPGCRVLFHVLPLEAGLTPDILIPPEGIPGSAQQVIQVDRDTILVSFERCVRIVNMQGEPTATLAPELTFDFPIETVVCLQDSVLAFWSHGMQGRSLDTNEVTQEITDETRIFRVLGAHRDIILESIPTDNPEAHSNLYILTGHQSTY
Nature of the series: Inhibition of human MAP4K2 at 2000 nM by KINOMEscan assay.

The target in series [19] is Cyclin-dependent kinase 19 (Homo sapiens) (UniProt Q9BWU1). Nature of the series: Inhibition of human CDK19 at 2000 nM by KINOMEscan assay.
Sequence of Cyclin-dependent kinase 19 (Homo sapiens) (Q9BWU1 whole entry): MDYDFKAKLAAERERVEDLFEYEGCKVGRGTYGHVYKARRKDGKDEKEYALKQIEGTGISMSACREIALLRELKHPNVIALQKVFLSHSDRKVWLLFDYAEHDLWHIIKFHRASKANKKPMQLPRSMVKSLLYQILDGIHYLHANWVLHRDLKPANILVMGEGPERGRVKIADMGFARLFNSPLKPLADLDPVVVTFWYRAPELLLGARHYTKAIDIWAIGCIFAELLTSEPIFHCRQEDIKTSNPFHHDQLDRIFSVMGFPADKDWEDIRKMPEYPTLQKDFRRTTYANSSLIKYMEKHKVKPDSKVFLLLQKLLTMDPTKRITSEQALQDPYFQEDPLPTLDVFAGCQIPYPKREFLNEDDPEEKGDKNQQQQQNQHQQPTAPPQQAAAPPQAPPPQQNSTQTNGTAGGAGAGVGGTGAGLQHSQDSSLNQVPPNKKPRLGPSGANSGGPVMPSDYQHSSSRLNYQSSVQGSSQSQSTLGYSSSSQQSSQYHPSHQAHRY

As usually defined, the IC50 is the concentration that gives 50% inhibition. A lower IC50 goes with greater potency. In general, AUC refers to concentration integrated over time. The half-life is the time needed for the level to fall by half in the phase considered. Usually inhibition stands for the percentage by which the read-out fell short of the control. The Kp is tissue or fluid exposure divided by exposure in the circulation. Usually AUC(0-t) stands for exposure summed from dosing to a finite time, without extrapolation to infinity. Lower therefore signals low exposure.

The source made the active and inactive calls.

T3 sequence (P49336 whole entry, looked up): as the sequence (P49336 whole entry) above
T3 sequence (Q9BWU1 whole entry, looked up): as the sequence (Q9BWU1 whole entry) above

Regarding `CN1CCN(C(=O)c2ccc3cc(CCNc4ncnc5ccc(C#N)cc45)ccc3c2)CC1` [SENEXIN B], half-maximal inhibition in series [1] (IC50) required 222 nM. For the same compound, the AUC in series [2] came to 1760 ng·h/mL. The Stabilty result in series [3] was “Unstable”. This compound also gave a half-life in [4] of 0.17 h. Further, the k el in series [5] is 0.00111 s⁻¹. The inhibition result in series [6] is “inactive”.

Compound `Clc1ccc2nccc(NCCc3ccccc3)c2c1` registered an inhibition in [7] of 8%.

`CN1CCN(C(=O)c2ccc3cc(CCNc4ccnc5ccc(C#N)cc45)ccc3c2)CC1`: the outcome in the series with 4T1 and in the series with LNCaP C4-2 was Active. Besides, the inhibition in [8], in [12], in series [14], in series [18] and in series [19] was greater than 65% in each case. The inhibition result in [9] and in [13] was “Active” throughout. The compound further showed a half-life in [10] of 3.8 h. Further, in [11], the Drug uptake result is “Active”. Besides, the IC50 in series [1] stood at 82 nM. In addition, the Kp in series [15] worked out at 5. Further, in series [3], the Stabilty result is recorded as “Stable”. Further, the k el in series [16] was 0.000261 s⁻¹. For the same compound, the AUC(0-t) at 8 h in series [17] worked out at 817 ng·h/mL.

Turning to `Brc1ccc2nccc(NCCc3ccccc3)c2c1`, the inhibition in series [7] was found to be 10%.

The record behind these values is ChEMBL document CHEMBL4804282, “Quinoline-based compounds and methods of inhibiting cdk8/19” (2020).
